Experimental data from ChEMBL document CHEMBL5241075, “Advancement of chimeric hybrid drugs to cure malaria infection: An overview with special emphasis on endoperoxide pharmacophores” (Eur J Med Chem, 2021).
Values after ≈ are worked out from the molar mass of the structure shown.

Assays:
Plasmodium falciparum [1] = experiment: Antiplasmodial activity against Plasmodium falciparum 3D7; type: functional, organism-based
Plasmodium falciparum [2] = experiment: Antiplasmodial activity against Plasmodium falciparum NF54; type: functional, organism-based
Plasmodium falciparum [3] = experiment: Antiplasmodial activity against Plasmodium falciparum DD2; type: functional, organism-based
Plasmodium falciparum [4] = experiment: Antiplasmodial activity against chloroquine resistant Plasmodium falciparum; type: functional, organism-based
Plasmodium falciparum [5] = experiment: Resistance index, ratio of IC50 for antiplasmodial activity against Plasmodium falciparum K1 to IC50 for antiplasmodial activity against Plasmodium falciparum D10; type: functional
Plasmodium falciparum [6] = experiment: Antiplasmodial activity against Plasmodium falciparum K1; type: functional, organism-based; settings: Plasmodium falciparum, K1
Plasmodium falciparum [7] = experiment: Antiplasmodial activity against Plasmodium falciparum D10; type: functional, organism-based; settings: Plasmodium falciparum, D10
Plasmodium falciparum [8] = experiment: Antiplasmodial activity against Plasmodium falciparum FcM29; type: functional, organism-based
Plasmodium falciparum [9] = experiment: Antiplasmodial activity against Plasmodium falciparum Nigerian; type: functional, organism-based
Plasmodium falciparum [10] = experiment: Antimalarial activity against chloroquine resistant Plasmodium falciparum FcB1; type: functional, organism-based
[11] = Therapeutic index, ratio of IC50 for antiproliferative activity against human HeLa cells to IC50 for antiplasmodial activity against Plasmodium falciparum K1; type: toxicity, cell-based; settings: HeLa cells, read-out: Ratio IC50
Hemozoin = experiment: Inhibition of Beta-hematin in Plasmodium falciparum
HeLa = experiment: Antiproliferative activity against human HeLa cells assessed as cell growth inhibition; type: functional, cell-based; settings: Homo sapiens, HeLa
Plasmodium falciparum [12] = experiment: Antiplasmodial activity against Plasmodium falciparum TM91C235; type: functional, organism-based
Plasmodium falciparum [13] = experiment: Antiplasmodial activity against Plasmodium falciparum W2; type: functional, organism-based
Plasmodium falciparum [14] = experiment: Antiplasmodial activity against Plasmodium falciparum D6; type: functional, organism-based
[15] = Stability of compound at pH 2 assessed as half life; type: physicochemical; settings: buffer
[16] = read-out: ED50 (the source's name)

C1CCC2(C1)OOC1(CCN(c3nc(N4CCOCC4)nc(N4CCOCC4)n3)CC1)OO2
IC50 (Plasmodium falciparum [1]): 0.00552 µM

COc1ccc2nc3cc(Cl)ccc3c(NCCCN(C)CCO[C@H]3O[C@@H]4O[C@]5(C)CC[C@H]6[C@H](C)CC[C@@H]([C@H]3C)[C@@]46OO5)c2c1
IC50 (Plasmodium falciparum [2]): 0.0122 µM | IC50 (Plasmodium falciparum [3]): 0.0385 µM

C[C@H]1[C@@H](OC(=O)CCC(=O)Oc2ccc(Nc3ncnc4ccccc34)cc2)O[C@@H]2O[C@]3(C)CC[C@H]4[C@H](C)CC[C@@H]1[C@@]24OO3
EC50 (Plasmodium falciparum [1]; read-out: EC50): 0.0038 µM

C[C@@H]1CC[C@H]2[C@@H](C)C(Oc3ccccc3)O[C@@H]3O[C@]4(C)CC[C@@H]1[C@]32OO4 (stereo partly specified)
IC50 (Plasmodium falciparum [4]): 0.0053 µM

C[C@@H]1CC[C@@H]2[C@]34OO[C@@](C)(CC[C@@H]13)O[C@H]4OC(Nc1cccc(F)c1)[C@@]2(C)Br (stereo partly specified)
IC50 (Plasmodium falciparum [4]): 0.16 ng/mL

C1CCCC2(CC1)OOC1(CCN(c3nc(N4CCOCC4)nc(N4CCOCC4)n3)CC1)OO2
IC50 (Plasmodium falciparum [1]): 0.00571 µM

C[C@H]1[C@@H](O)O[C@@H]2C[C@]3(C)CC[C@H]4[C@H](C)CC[C@@H]1[C@@]24OO3
IC50 (Plasmodium falciparum [2]): < 0.007 µM | Ratio IC50 (Plasmodium falciparum [5]): 0.75 | EC50 (Plasmodium falciparum [1]; read-out: EC50): 0.0024 µM | IC50 (Plasmodium falciparum [6]): 0.003 µM | IC50 (Plasmodium falciparum [7]): 0.004 µM

C1CCC2(CC1)OOC1(CCN(c3nc(N4CCOCC4)nc(N4CCOCC4)n3)CC1)OO2
IC50 (Plasmodium falciparum [1]): 0.00568 µM

CC(CCC1OOC(C)(C)C(C)(CI)O1)NCCNc1ccnc2cc(Cl)ccc12 (stereo unspecified)
IC50 (Plasmodium falciparum [8]): 0.188 µM | IC50 (Plasmodium falciparum [9]): 0.188 µM | IC50 (Plasmodium falciparum [10]): 0.188 µM

C[C@@H]1CC[C@H]2[C@@H](C)C(OCc3ccc(C(=O)N(CCNc4ccnc5cc(Cl)ccc45)CC(=O)NC4CCCCC4)cc3)O[C@@H]3O[C@]4(C)CC[C@@H]1[C@]32OO4 (stereo partly specified)
selectivity ratio [11]: 12 | IC50 (Hemozoin): 0.45 equiv | Ratio IC50 (Plasmodium falciparum [5]): 1 | IC50 (HeLa): 0.286 µM | IC50 (Plasmodium falciparum [6]): 0.023 µM | IC50 (Plasmodium falciparum [7]): 0.026 µM

C[C@@H]1CC[C@@H]2[C@]34OO[C@@](C)(CC[C@@H]13)O[C@H]4OC(Nc1ncccn1)[C@@]2(C)Br (stereo partly specified)
IC50 (Plasmodium falciparum [4]): 0.16 ng/mL

Clc1cc(NCCCN[C@@H]2C[C@@H]3CCC4(OO[C@@]5(c6ccccc6)CC(c6ccccc6)=C[C@H]5O4)[C@@H]3C2)c2ncccc2c1 (stereo partly specified)
IC50 (Plasmodium falciparum [8]): 0.031 µM | IC50 (Plasmodium falciparum [9]): 0.031 µM | IC50 (Plasmodium falciparum [10]): 0.031 µM

CCOP(=O)(CCCN(O)C(=O)CC[C@H]1O[C@@H]2O[C@]3(C)CC[C@H]4[C@H](C)CC[C@@H]([C@H]1C)C24OO3)OCC
IC50 (Plasmodium falciparum [10]): 28 µM

C[C@@H]1C[C@@H]2CC3(CC[C@@H]2C2CC[C@@]4(C)C(CC[C@@H]4[C@H](C)CCCNCCNc4ccnc5cc(Cl)ccc45)C21)OOC1(CCCCC1)OO3 (stereo partly specified)
IC50 (Plasmodium falciparum [12]): 0.0302 µM | IC90 (Plasmodium falciparum [12]): 0.16 µM | IC50 (Plasmodium falciparum [13]): 0.0229 µM | IC90 (Plasmodium falciparum [13]): 0.0303 µM | IC50 (Plasmodium falciparum [14]): 0.0335 µM | IC90 (Plasmodium falciparum [14]): 0.103 µM

COC1(C(F)(F)F)O[C@@H]2O[C@]3(C)CC[C@H]4[C@H](C)CC[C@@H]([C@H]1C)[C@@]24OO3 (stereo partly specified)
half-life [15]: 27.5 days | IC50 (Plasmodium falciparum [4]): 0.0008 µM

COc1ccc2nc3cc(Cl)ccc3c(N3CCN(CCO[C@H]4O[C@@H]5O[C@]6(C)CC[C@H]7[C@H](C)CC[C@@H]([C@H]4C)[C@@]57OO6)CC3)c2c1
IC50 (Plasmodium falciparum [2]): 0.267 µM | IC50 (Plasmodium falciparum [3]): 0.43 µM

COc1ccc2nc3cc(Cl)ccc3c(NCCNCCO[C@H]3O[C@@H]4O[C@]5(C)CC[C@H]6[C@H](C)CC[C@@H]([C@H]3C)[C@@]46OO5)c2c1
IC50 (Plasmodium falciparum [2]): 0.0026 µM | IC50 (Plasmodium falciparum [3]): 0.0353 µM

Clc1cc(NCCNC2CCC3(CC2)OOC2CCC=CC2O3)c2ncccc2c1 (stereo unspecified)
IC50 (Plasmodium falciparum [8]): 0.036 µM | IC50 (Plasmodium falciparum [9]): 0.036 µM | IC50 (Plasmodium falciparum [10]): 0.036 µM

Clc1cc(NCCCN[C@H]2C[C@H]3CCC4(OO[C@@]5(c6ccccc6)CC(c6ccccc6)=C[C@H]5O4)[C@H]3C2)c2ncccc2c1 (stereo partly specified)
IC50 (Plasmodium falciparum [8]): 0.063 µM | IC50 (Plasmodium falciparum [9]): 0.063 µM | IC50 (Plasmodium falciparum [10]): 0.063 µM

C[C@H]1[C@@H](OCc2ccc(C(=O)O)cc2)O[C@@H]2O[C@@]3(C)CC[C@H]4[C@H](C)CC[C@@H]1[C@@]24OO3
Ratio IC50 (Plasmodium falciparum [5]): 0.75 | EC50 (Plasmodium falciparum [1]; [16]): 4 ng/mL | IC50 (Plasmodium falciparum [6]): 0.006 µM | EC50 (Plasmodium falciparum [6]; [16]): 1.4 ng/mL (≈ 3.35 nM) | IC50 (Plasmodium falciparum [7]): 0.006 µM

CCOP(=O)(CCCN(O)C(=O)CCC(=O)N(CCCNC(=O)CC[C@H]1O[C@@H]2O[C@]3(C)CC[C@H]4[C@H](C)CC[C@@H]([C@H]1C)C24OO3)CCCNC(=O)CC[C@H]1O[C@@H]2O[C@]3(C)CC[C@H]4[C@H](C)CC[C@@H]([C@H]1C)C24OO3)OCC
IC50 (Plasmodium falciparum [10]): 0.36 µM

Clc1cc(NCCCNC2CCC3(CC2)OO[C@@]2(c4ccccc4)CC(c4ccccc4)=C[C@H]2O3)c2ncccc2c1 (mixture of isomers)
IC50 (Plasmodium falciparum [8]): 0.041 µM | IC50 (Plasmodium falciparum [9]): 0.041 µM | IC50 (Plasmodium falciparum [10]): 0.041 µM

CC(C)CN(NC(=O)C1CCC2(CC1)OOC1(OO2)C2CC3CC(C2)CC1C3)c1ccnc(C#N)n1 (stereo unspecified)
IC50 (Plasmodium falciparum [13]): 0.0098 µM

CC(=O)O[C@H]1CC2C(C3CC[C@H]([C@H](C)CCC(=O)NCCNc4ccnc5cc(Cl)ccc45)[C@]31C)[C@H](OC(C)=O)C[C@@H]1CC3(CC[C@H]21)OOC1(CCCCC1)OO3 (stereo partly specified)
IC50 (Plasmodium falciparum [12]): 0.00854 µM | IC90 (Plasmodium falciparum [12]): 0.0172 µM | IC50 (Plasmodium falciparum [13]): 0.00447 µM | IC90 (Plasmodium falciparum [13]): 0.0105 µM | IC50 (Plasmodium falciparum [14]): 0.00653 µM | IC90 (Plasmodium falciparum [14]): 0.0106 µM

COc1ccc2nc3cc(Cl)ccc3c(N3CCN(CCO[C@H]4O[C@@H]5O[C@]6(C)CC[C@H]7[C@H](C)CC[C@@H]([C@H]4C)[C@@]57OO6)C(C)C3)c2c1 (stereo partly specified)
IC50 (Plasmodium falciparum [2]): 0.017 µM | IC50 (Plasmodium falciparum [3]): 0.0413 µM

C[C@@H]1CC[C@H]2[C@@H](C)C(c3ccco3)O[C@@H]3O[C@]4(C)CC[C@@H]1[C@]32OO4 (stereo partly specified)
IC50 (Plasmodium falciparum [2]): 0.0014 µM

COc1cc(NC(C)CCCNC2CCC3(CC2)OO[C@@]2(C)CCC(C(C)C)=C[C@H]2O3)c2ncccc2c1 (stereo partly specified)
IC50 (Plasmodium falciparum [8]): 0.108 µM | IC50 (Plasmodium falciparum [9]): 0.108 µM | IC50 (Plasmodium falciparum [10]): 0.108 µM

COc1ccc2nc3cc(Cl)ccc3c(NCCN3CCNCC3)c2c1
IC50 (Plasmodium falciparum [2]): 0.0073 µM | IC50 (Plasmodium falciparum [3]): 0.142 µM

C[C@H]1[C@@H](OC(=O)CCC(=O)Nc2cccc3ncnc(Nc4ccc(Cl)c(Cl)c4)c23)O[C@@H]2O[C@]3(C)CC[C@H]4[C@H](C)CC[C@@H]1[C@@]24OO3
EC50 (Plasmodium falciparum [1]; read-out: EC50): 0.0024 µM

C1CN(c2nc(N3CCOCC3)nc(N3CCC4(CC3)OOC3(OO4)C4CC5CC(C4)CC3C5)n2)CCO1
IC50 (Plasmodium falciparum [1]): 0.00412 µM

C[C@@H]1CC[C@H]2[C@@H](C)C(OC(=O)CCC(=O)O)(C(F)(F)F)O[C@@H]3O[C@]4(C)CC[C@@H]1[C@]32OO4 (stereo partly specified)
half-life [15]: 1.25 days | IC50 (Plasmodium falciparum [4]): 0.0041 µM

C[C@@H]1CC[C@H]2[C@@H](C)C(O)(C(F)(F)F)O[C@@H]3O[C@]4(C)CC[C@@H]1[C@]32OO4 (stereo partly specified)
half-life [15]: 31.7 days | IC50 (Plasmodium falciparum [4]): 0.0094 µM

C[C@@H]1CC[C@H]2[C@@H](C)C(OCc3ccc(C(=O)N(CCCCNc4ccnc5cc(Cl)ccc45)CC(=O)NC4CCCCC4)cc3)O[C@@H]3O[C@]4(C)CC[C@@H]1[C@]32OO4 (stereo partly specified)
selectivity ratio [11]: 8 | IC50 (Hemozoin): 0.31 equiv | Ratio IC50 (Plasmodium falciparum [5]): 0.88 | IC50 (HeLa): 0.169 µM | IC50 (Plasmodium falciparum [6]): 0.021 µM | IC50 (Plasmodium falciparum [7]): 0.035 µM

CCC1O[C@@H]2O[C@]3(C)CC[C@H]4[C@H](C)CC[C@@H]([C@H]1C)[C@@]24OO3 (stereo partly specified)
IC50 (Plasmodium falciparum [13]): 0.29 ng/mL | IC50 (Plasmodium falciparum [14]): 1.09 ng/mL

Clc1cc(NCCCCNC2CCC3(CC2)OO[C@@]2(c4ccccc4)CC(c4ccccc4)=C[C@H]2O3)c2ncccc2c1 (stereo partly specified)
IC50 (Plasmodium falciparum [8]): 0.041 µM | IC50 (Plasmodium falciparum [9]): 0.041 µM | IC50 (Plasmodium falciparum [10]): 0.041 µM

CCOC1(C(F)(F)F)O[C@@H]2O[C@]3(C)CC[C@H]4[C@H](C)CC[C@@H]([C@H]1C)[C@@]24OO3 (stereo partly specified)
half-life [15]: 20.8 days | IC50 (Plasmodium falciparum [4]): 0.0033 µM

CCOP(=O)(CCCN(O)C(=O)CCC(=O)N(CCCCNC(=O)CC[C@H]1O[C@@H]2O[C@]3(C)CC[C@H]4[C@H](C)CC[C@@H]([C@H]1C)C24OO3)CCCNC(=O)CC[C@@H]1O[C@H]2O[C@@]3(C)CC[C@@H]4[C@@H](C)CC[C@H]([C@@H]1C)C24OO3)OCC
IC50 (Plasmodium falciparum [10]): 0.65 µM

CCCC1O[C@@H]2O[C@]3(C)CC[C@H]4[C@H](C)CC[C@@H]([C@H]1C)[C@@]24OO3 (stereo partly specified)
IC50 (Plasmodium falciparum [13]): 0.16 ng/mL | IC50 (Plasmodium falciparum [14]): 0.41 ng/mL

Clc1cc(NCCNC2CCC3(CC2)OO[C@@]2(c4ccccc4)CC(c4ccccc4)=C[C@H]2O3)c2ncccc2c1 (mixture of isomers)
IC50 (Plasmodium falciparum [8]): 0.022 µM | IC50 (Plasmodium falciparum [9]): 0.022 µM | IC50 (Plasmodium falciparum [10]): 0.022 µM

COc1ccc2nc3cc(Cl)ccc3c(NCCN3CCN(CCO[C@H]4O[C@@H]5O[C@]6(C)CC[C@H]7[C@H](C)CC[C@@H]([C@H]4C)[C@@]57OO6)CC3)c2c1
IC50 (Plasmodium falciparum [2]): 0.0141 µM | IC50 (Plasmodium falciparum [3]): 0.0504 µM
